Experimental data published in patent US20060142239A1, “Potassium or sodium salt of (-)-2-(4-hydroxyphenyl)ethyl!-thio-3-'4-{4-'(methzlsulfonzl)oxy !phenoxy}phenyl!propanoic acid and their use in medicine” (priority 2003, published 2006).

Assays:
[1] = system: SC LS-174T tumours; experiment: Human LS-174T colon tumour xenografts in Nude mice, tumour growth delay; type: in vivo; conditions: ZD6126 200 mg/kg IP, 5-FU 75 mg/kg IV, CPT-11 25 mg/kg IV; for MEDIAN TIME TO REACH TUMOUR SIZE OF 2 CM^3: SC LS-174T xenografts in Nude mice, weekly x3 (Days 1, 8, 15), in combinations ZD6126 2 hours after the other agent; for T - C (DAYS), tumour growth delay: difference in median time to reach 2 cm^3, treatment vs vehicle control, weekly x3
Method: Human LS-174T Colon Tumour Xenografts in Nude Mice […] Mice were randomised into 6 groups of 15-18 mice per group. Group 1—control Group 2—received 3 weekly intraperitoneal (IP) injections of ZD6126 at 200 mg/kg on Days 1, 8 and 15 Group 3—received 3 weekly intravenous (IV) injections of 5-FU at 75 mg/kg on Days 1, 8 and 15 Group 4—received 3 weekly IV injections of CPT-11 alone at 25 mg/kg on Days 1, 8 and 15. Group 5—received 3 weekly IP injections of ZD6126 at 200 mg/kg on Days 1, 8 and 15 and 3 weekly IV injections of 5-FU at 75 mg/kg Days 1, 8 and 15. Group 6—received 3 weekly IP injections of ZD6126 at 200 mg/kg on Days 1, 8 and 15 and 3 weekly IV injections of CPT-11 at 25 mg/kg on Days 1, 8 and 15. In groups 5 and 6, when animals received both ZD6126 and CPT-11 or 5-FU on the same day, the ZD6126 was administered 2 hours after the CPT-11 or 5-FU. [table] For all animals, the tumour size was measured twice a week with calipers, and the tumour volume (mm^3) was estimated according to the formula: {[(Square root of Length×Width)×(Length×Width)]×0.5236}. The mice were sacrificed when tumours grew beyond 10% of bodyweight. Treatment efficacy was assessed in terms of the effects on the tumour volumes of treated mice relative to vehicle-treated mice and expressed as growth delay. Growth delay T-(C) was calculated as the difference in the median growth time of the treatment group (T) and the vehicle control group (C) to reach a tumor size of 2 cm^3.

[2] = system: tumour vasculature; conditions: reported in Proc. Am. Assoc. Cancer Res. 2000; 41: 329; cited from earlier work

SMILES | MEDIAN TIME TO REACH TUMOUR SIZE OF 2 CM^3 [1] [days] | T - C (DAYS), tumour growth delay [1] [days] | effect on tumour vasculature [2]
COc1cc2c(c(OC)c1OC)-c1ccc(OP(=O)(O)O)cc1[C@@H](NC(C)=O)CC2 [ZD6126, (5S)-5-(acetylamino)-9,10,11-trimethoxy-6,7-dihydro-5H-dibenzo[a,c]cyclohepten-3-yl dihydrogen phosphate] | 17 | 8 | selectively disrupts tumour vasculature leading to vessel occlusion and extensive tumour necrosis
CCc1c2c(nc3ccc(OC(=O)N4CCC(N5CCCCC5)CC4)cc13)-c1cc3c(c(=O)n1C2)COC(=O)[C@]3(O)CC [CPT-11, irinotecan] | 17 | 8 | –
O=c1[nH]cc(F)c(=O)[nH]1 [5-FU, 5-fluorouracil] | 14 | 5 | –
